This is an account of results in patent publication US20060263802A1 (priority 2003, published 2006).

What all share (format): binding
Assay [1] concerns human monoclonal antibody CRJB.
Assay [2] concerns human monoclonal antibody CR57.
Assay [3] concerns human monoclonal antibody CRJA.
Assay [4] deals with human monoclonal antibody CRJB. This is another data set of the same source.
Assay [5] concerns human monoclonal antibody CRJA. The source holds these as a separate data set.
In assay [6] the test system is human monoclonal antibody CR57. This is another data set of the same source.

Regarding REECLDALESIMTTK, the “Binding of CRJB to linear peptide (PEPSCAN-ELISA signal)” value (“Binding of CRJB to linear peptide” below) in assay [1] was 110. Besides, in assay [2], the “Binding of CR57 to linear peptide (PEPSCAN-ELISA signal)” value (shortened to “Binding of CR57 to linear peptide”) stood at 94. The “Binding of CRJA to linear peptide (PEPSCAN-ELISA signal)” value (“Binding of CRJA to linear peptide” for short) in assay [3] was 94. Moreover, the “Binding of CRJB (10 μg/ml) to looped/cyclic peptide (PEPSCAN-ELISA)” value in assay [4] is recorded as 79. The “Binding of CRJA (10 μg/ml) to looped/cyclic peptide (PEPSCAN-ELISA)” value in assay [5] was determined as 92. Moreover, the “Binding of CR57 (10 μg/ml) to looped/cyclic peptide (PEPSCAN-ELISA)” value in assay [6] came out at 89.

As to GFTCTGVVTEAENYT, the “Binding of CRJB to linear peptide” value in assay [1] stood at 86. Further, the “Binding of CR57 to linear peptide” value in assay [2] is listed as 71. Besides, the “Binding of CRJA to linear peptide” value in assay [3] turned out to be 90. For the same sequence, in assay [4], the “Binding of CRJB (10 μg/ml) to looped/cyclic peptide (PEPSCAN-ELISA signal)” value is recorded as 68. In addition, the “Binding of CRJA (10 μg/ml) to looped/cyclic peptide (PEPSCAN-ELISA signal)” value in assay [5] was 87. The “Binding of CR57 (10 μg/ml) to looped/cyclic peptide (PEPSCAN-ELISA signal)” value in assay [6] was found to be 94.

On to RCHPHVNGVFFNGII, for which the “Binding of CRJB to linear peptide” value in assay [1] is 141. Moreover, in assay [2], the “Binding of CR57 to linear peptide” value is 98. In assay [3], the “Binding of CRJA to linear peptide” value was 108. The “Binding of CRJB (10 μg/ml) to looped/cyclic peptide (PEPSCAN-ELISA)” value in assay [4] is 100. Moreover, the “Binding of CRJA (10 μg/ml) to looped/cyclic peptide (PEPSCAN-ELISA)” value in assay [5] worked out at 106. In addition, the “Binding of CR57 (10 μg/ml) to looped/cyclic peptide (PEPSCAN-ELISA)” value in assay [6] stood at 104.

In the case of KAYTIFNKTLMEADA, the “Binding of CRJB to linear peptide” value in assay [1] amounted to 123. Also, the “Binding of CR57 to linear peptide” value in assay [2] turned out to be 101. In assay [3], the “Binding of CRJA to linear peptide” value stood at 76. Also, the “Binding of CRJB (10 μg/ml) to looped/cyclic peptide (PEPSCAN-ELISA)” value in assay [4] stood at 92. In addition, in assay [5], the “Binding of CRJA (10 μg/ml) to looped/cyclic peptide (PEPSCAN-ELISA)” value is on record as 104. Moreover, in assay [6], the “Binding of CR57 (10 μg/ml) to looped/cyclic peptide (PEPSCAN-ELISA)” value is listed as 137.

For the sequence ILAIKMNGFTCTGVV, the “Binding of CRJB to linear peptide” value in assay [1] is recorded as 103. Besides, the “Binding of CR57 to linear peptide” value in assay [2] is reported as 79. For the same sequence, in assay [3], the “Binding of CRJA to linear peptide” value came to 87. Moreover, the “Binding of CRJB (10 μg/ml) to looped/cyclic peptide (PEPSCAN-ELISA signal)” value in assay [4] came to 72. For the same sequence, the “Binding of CRJA (10 μg/ml) to looped/cyclic peptide (PEPSCAN-ELISA signal)” value in assay [5] was 45. For the same sequence, the “Binding of CR57 (10 μg/ml) to looped/cyclic peptide (PEPSCAN-ELISA signal)” value in assay [6] stood at 77.

Take KGCLRVGGRCHPHVN: the “Binding of CRJB to linear peptide” value in assay [1] turned out to be 130. Moreover, in assay [2], the “Binding of CR57 to linear peptide” value is 68. In assay [3], the “Binding of CRJA to linear peptide” value came to 108. Besides, the “Binding of CRJB (10 μg/ml) to looped/cyclic peptide (PEPSCAN-ELISA)” value in assay [4] is 91. In addition, in assay [5], the “Binding of CRJA (10 μg/ml) to looped/cyclic peptide (PEPSCAN-ELISA)” value came to 102. Further, the “Binding of CR57 (10 μg/ml) to looped/cyclic peptide (PEPSCAN-ELISA)” value in assay [6] was 65.

With NVLIPEMQSSLLQQH, the “Binding of CRJB to linear peptide” value in assay [1] came out at 120. Further, the “Binding of CR57 to linear peptide” value in assay [2] turned out to be 72. Also, the “Binding of CRJA to linear peptide” value in assay [3] is given as 92. Also, the “Binding of CRJB (10 μg/ml) to looped/cyclic peptide (PEPSCAN-ELISA)” value in assay [4] was determined as 99. Moreover, in assay [5], the “Binding of CRJA (10 μg/ml) to looped/cyclic peptide (PEPSCAN-ELISA)” value is given as 110. Also, in assay [6], the “Binding of CR57 (10 μg/ml) to looped/cyclic peptide (PEPSCAN-ELISA)” value is 97.

In the case of GRCHPHVNGVFFNGI, the “Binding of CRJB to linear peptide” value in assay [1] was 113. In addition, the “Binding of CR57 to linear peptide” value in assay [2] was determined as 117. Moreover, the “Binding of CRJA to linear peptide” value in assay [3] turned out to be 100. Also, the “Binding of CRJB (10 μg/ml) to looped/cyclic peptide (PEPSCAN-ELISA)” value in assay [4] amounted to 102. In assay [5], the “Binding of CRJA (10 μg/ml) to looped/cyclic peptide (PEPSCAN-ELISA)” value came to 104. Besides, in assay [6], the “Binding of CR57 (10 μg/ml) to looped/cyclic peptide (PEPSCAN-ELISA)” value is 110.

As to NEILPSKGCLRVGGR, the “Binding of CRJB to linear peptide” value in assay [1] came out at 130. In assay [2], the “Binding of CR57 to linear peptide” value was found to be 104. For the same sequence, the “Binding of CRJA to linear peptide” value in assay [3] came out at 97. In assay [4], the “Binding of CRJB (10 μg/ml) to looped/cyclic peptide (PEPSCAN-ELISA)” value was 111. In addition, the “Binding of CRJA (10 μg/ml) to looped/cyclic peptide (PEPSCAN-ELISA)” value in assay [5] turned out to be 105. Moreover, the “Binding of CR57 (10 μg/ml) to looped/cyclic peptide (PEPSCAN-ELISA)” value in assay [6] came to 104.

On to LESSVIPLVHPLADP, for which, in assay [1], the “Binding of CRJB to linear peptide” value came out at 128. In addition, the “Binding of CR57 to linear peptide” value in assay [2] was determined as 90. The “Binding of CRJA to linear peptide” value in assay [3] was 110. In addition, in assay [4], the “Binding of CRJB (10 μg/ml) to looped/cyclic peptide (PEPSCAN-ELISA)” value is 128. In assay [5], the “Binding of CRJA (10 μg/ml) to looped/cyclic peptide (PEPSCAN-ELISA)” value is 114. Besides, the “Binding of CR57 (10 μg/ml) to looped/cyclic peptide (PEPSCAN-ELISA)” value in assay [6] is given as 120.
